The term pEC50 denotes the negative decadic logarithm of the EC50, by convention in mol/L.

pEC50: −log10 of the molar value. Several values for one entry are separate records, joined by “and”; a condition that tells them apart may be missing. Equal values may be shown once. Read-outs that look alike come from different tables or passages of the source. A value given as a limit tells only on which side of the number the result lay.

For data set [1] the following is noted: amide bond, 13-membered ring.
The target of data set [2] is T1, CFTR (Homo sapiens, UniProt P13569). Briefly: Membrane potential dye, Enteroid Assay B. Particulars: Table 6. In kind it is cell-based. An outline of the steps:
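Human intestinal enteroids were treated with compound in maintenance medium for 18-24 h at 37° C, then loaded with methyl oxonol membrane-potential dye (25 min, room temperature). Chloride transport was triggered in chloride-free buffer with 10 μM forskolin, 100 μM IBMX and 300 nM Compound III, fluorescence read 15 min; expressed as % of triple-combination control.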

A further data set has as its target T2, F508del (Homo sapiens, UniProt P13569, DEL508-508).
T2 construct: expressed in transfected cells
The experiment in a line: 3T3 assay: membrane potential optical assay for F508del correction. Particulars: F508del NIH 3T3 cells; for Emax: NIH3T3, compared to lumacaftor in combination with acutely added 300 nM Ivacaftor, read-out: 3T3 Max Activity; for pEC50: 18-24 hours at 37° C., forskolin, acutely added 300 nM Ivacaftor. In kind it is cell-based. From the text:
1. Membrane Potential Optical Methods for Assaying F508del Modulation Properties of Compounds
The assay utilizes fluorescent voltage sensing dyes to measure changes in membrane potential using a fluorescent plate reader (e.g., FLIPR III, Molecular Devices, Inc.) as a readout for increase in functional F508del in NIH 3T3 cells. The driving force for the response is the creation of a chloride ion gradient in conjunction with channel activation by a single liquid addition step after the cells have previously been treated with compounds and subsequently loaded with a voltage sensing dye.
2. Identification of Corrector Compounds
To identify correctors of F508del, a single-addition HTS assay format was developed. This HTS assay utilizes fluorescent voltage sensing dyes to measure changes in membrane potential on the FLIPR III as a measurement for increase in gating (conductance) of F508del in F508del NIH 3T3 cells. The F508del NIH 3T3 cell cultures were incubated with the corrector compounds at a range of concentrations for 18-24 hours at 37° C., and subsequently loaded with a redistribution dye. The driving force for the response is a Cl^− ion gradient in conjunction with channel activation with forskolin in a single liquid addition step using a fluorescent plate reader such as FLIPR III.
Bath Solution #1: (in mM) NaCl 160, KCl 4.5, CaCl2) 2, MgCl2 1, HEPES 10, pH 7.4 with NaOH.
Chloride-free bath solution: Chloride salts in Bath Solution #1 (above) are substituted with gluconate salts.
NIH3T3 mouse fibroblasts stably expressing F508del are used for optical measurements of membrane potential. The cells are maintained at 37° C. in 5% CO2 and 90% humidity in Dulbecco's modified Eagle's medium supplemented with 2 mM glutamine, 10% fetal bovine serum, 1× NEAA, b-ME, 1×pen/strep, and 25 mM HEPES in 175 cm^2 culture flasks. For all optical assays, the cells were seeded at ˜20,000/well in 384-well Matrigel-coated plates. For the correction assays, the cells are cultured at 37° C. with and without compounds for 16-24 hours.

The target of data set [3] is T1, CFTR. Briefly: Membrane potential dye, Enteroid Assay A. Type of data set: cell-based. The following applies: for Ent. A Max Activity: chloride transport as % of triple combination control (Enteroid Assay A); for pEC50: human enteroid cells, 18-24 hours, acute 10 μM forskolin and 300 nM ivacaftor, read-out: Ent. A EC50. An outline of the steps:
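Human intestinal enteroids incubated 18-24 h at 37 °C with test compound, then loaded with 20 μM methyl oxonol (with CaCC inhibitors). Chloride transport triggered in chloride-free buffer with 10 μM forskolin, 100 μM IBMX, 300 nM Compound III; fluorescence read 15 min, expressed as % of a triple-combination corrector/potentiator control.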

T1 sequence (P13569 with tags, fused parts or gaps DEL508-508): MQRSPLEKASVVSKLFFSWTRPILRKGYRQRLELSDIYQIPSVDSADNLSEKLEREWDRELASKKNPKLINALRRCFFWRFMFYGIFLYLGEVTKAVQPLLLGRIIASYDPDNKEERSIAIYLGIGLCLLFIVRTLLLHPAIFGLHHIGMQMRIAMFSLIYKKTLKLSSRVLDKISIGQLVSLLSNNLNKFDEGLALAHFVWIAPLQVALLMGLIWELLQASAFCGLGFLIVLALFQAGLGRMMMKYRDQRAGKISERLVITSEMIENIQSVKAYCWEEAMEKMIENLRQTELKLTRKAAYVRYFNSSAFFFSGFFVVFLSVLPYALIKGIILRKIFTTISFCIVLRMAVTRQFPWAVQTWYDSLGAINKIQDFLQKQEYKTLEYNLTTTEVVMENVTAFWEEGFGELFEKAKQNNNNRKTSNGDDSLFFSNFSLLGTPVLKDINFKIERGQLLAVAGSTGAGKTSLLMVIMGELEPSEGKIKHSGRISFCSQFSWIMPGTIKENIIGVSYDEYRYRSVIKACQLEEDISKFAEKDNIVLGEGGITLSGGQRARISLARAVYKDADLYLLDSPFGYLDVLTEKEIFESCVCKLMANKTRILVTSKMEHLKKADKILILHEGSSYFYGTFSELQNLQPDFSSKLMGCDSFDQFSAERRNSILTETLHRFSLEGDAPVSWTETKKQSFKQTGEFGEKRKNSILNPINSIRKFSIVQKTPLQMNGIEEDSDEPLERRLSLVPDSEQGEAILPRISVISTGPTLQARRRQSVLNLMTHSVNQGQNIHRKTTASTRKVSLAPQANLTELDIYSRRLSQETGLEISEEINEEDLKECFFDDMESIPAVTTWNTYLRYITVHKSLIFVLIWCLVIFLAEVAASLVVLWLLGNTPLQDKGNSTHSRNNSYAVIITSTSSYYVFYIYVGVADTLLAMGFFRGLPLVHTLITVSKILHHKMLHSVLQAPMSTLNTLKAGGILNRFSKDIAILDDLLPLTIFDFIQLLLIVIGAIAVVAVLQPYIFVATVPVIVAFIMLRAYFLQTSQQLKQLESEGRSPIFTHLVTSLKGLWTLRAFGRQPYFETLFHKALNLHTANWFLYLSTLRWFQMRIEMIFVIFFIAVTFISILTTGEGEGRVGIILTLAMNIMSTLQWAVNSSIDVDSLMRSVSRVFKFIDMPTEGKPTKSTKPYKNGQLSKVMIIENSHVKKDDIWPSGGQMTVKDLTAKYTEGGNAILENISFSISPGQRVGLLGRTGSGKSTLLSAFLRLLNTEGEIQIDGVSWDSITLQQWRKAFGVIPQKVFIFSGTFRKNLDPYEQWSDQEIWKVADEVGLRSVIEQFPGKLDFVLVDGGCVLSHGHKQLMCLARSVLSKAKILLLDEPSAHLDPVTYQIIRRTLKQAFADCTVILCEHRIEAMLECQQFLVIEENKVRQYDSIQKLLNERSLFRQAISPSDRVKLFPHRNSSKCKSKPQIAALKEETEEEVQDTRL
T2 sequence (P13569 with tags, fused parts or gaps DEL508-508): as above

In data set [1] (from CCOC(=O)CCCCN[C@@H](COc1cc(-c2c(C)cccc2C)nc(NS(=O)(=O)c2cccc(C(=O)O)c2)n1)CC(C)(C)C, HATU/DIEA, DMF, 62.0 mM, 25.0 °C, 1.0 h), `CCOC(=O)CCCCN1C(=O)c2cccc(c2)S(=O)(=O)Nc2nc(cc(-c3c(C)cccc3C)n2)OC[C@H]1CC(C)(C)C` came in with a ring closure, yield after HPLC of 66%.
As for `CCOC(=O)COc1ccc(CN2C(=O)c3cccc(c3)S(=O)(=O)Nc3nc(cc(-c4c(C)cccc4C)n3)OC[C@H]2CC(C)(C)C)nc1`, in data set [1] (from CCOC(=O)COc1ccc(CN[C@@H](COc2cc(-c3c(C)cccc3C)nc(NS(=O)(=O)c3cccc(C(=O)O)c3)n2)CC(C)(C)C)nc1, HATU/DIEA, DMF, 29.1 mM, 25.0 °C, 4.0 h), the ring closure, yield after HPLC came out at 42%.
Consider `COC(=O)C12CC(CN3C(=O)c4cccc(c4)S(=O)(=O)Nc4nc(cc(-c5c(C)cccc5C)n4)OC[C@H]3CC(C)(C)C)(C1)C2`, for which the ring closure, yield after HPLC in data set [1] (from COC(=O)C12CC(CN[C@@H](COc3cc(-c4c(C)cccc4C)nc(NS(=O)(=O)c4cccc(C(=O)O)c4)n3)CC(C)(C)C)(C1)C2, CDMT/NMM, DMF, 29.1 mM, 25.0 °C, 60.0 h) is 27%.
As for `Cc1cccc(C)c1-c1cc2nc(n1)NS(=O)(=O)c1cccc(c1)C(=O)N(C)CC(c1ccc(CC3(C(F)(F)F)CC3)cn1)O2` (stereo not shown), the ring closure, yield after HPLC in data set [1] (from CNCC(Oc1cc(-c2c(C)cccc2C)nc(NS(=O)(=O)c2cccc(C(=O)O)c2)n1)c1ccc(CC2(C(F)(F)F)CC2)cn1, HATU (excess NaOtBu from SNAr), THF/DMF, 49.6 mM, 25.0 °C, 3.0 h, 2 steps) amounted to 35%.
In the case of `Cc1cccc(C)c1-c1cc2nc(n1)NS(=O)(=O)c1cccc(c1)C(=O)N(CC1CCN(C(=O)OC(C)(C)C)CC1)[C@H](CC(C)(C)C)CO2`, the ring closure, yield after HPLC in data set [1] (from Cc1cccc(C)c1-c1cc(OC[C@@H](CC(C)(C)C)NCC2CCN(C(=O)OC(C)(C)C)CC2)nc(NS(=O)(=O)c2cccc(C(=O)O)c2)n1, CDMT/NMM, DMF, 25.0 °C, 3.5 h, 2 steps) was determined as 25%.
In data set [1] (from Cc1cccc(C)c1-c1cc(OC[C@@H](CC(C)(C)C)NCCc2ccc(Br)cn2)nc(NS(=O)(=O)c2cccc(C(=O)O)c2)n1, CDMT/NMM, DMF, 25.0 °C, 3.0 h, 2 steps), `Cc1cccc(C)c1-c1cc2nc(n1)NS(=O)(=O)c1cccc(c1)C(=O)N(CCc1ccc(Br)cn1)[C@H](CC(C)(C)C)CO2` showed a ring closure, yield after HPLC of 15%.
In data set [1] (from Cc1cccc(C)c1-c1cc(OC[C@@H](CC(C)(C)C)NCCc2cccc(F)n2)nc(NS(=O)(=O)c2cccc(C(=O)O)c2)n1, CDMT/NMM, DMF, 25.0 °C, 3.0 h, 2 steps), `Cc1cccc(C)c1-c1cc2nc(n1)NS(=O)(=O)c1cccc(c1)C(=O)N(CCc1cccc(F)n1)[C@H](CC(C)(C)C)CO2` gave a ring closure, yield after HPLC of 6%.
On to `Cc1cccc(C)c1-c1cc2nc(n1)NS(=O)(=O)c1cccc(c1)C(=O)N(C[C@H]1COC(C)(C)O1)[C@H](CC(C)C)CO2`, for which, in data set [1] (from Cc1cccc(C)c1-c1cc(OC[C@@H](CC(C)C)NC[C@H]2COC(C)(C)O2)nc(NS(=O)(=O)c2cccc(C(=O)O)c2)n1, HATU/DIEA, DMF, 26.2 mM, 25.0 °C, 2.0 h, 2 steps), the ring closure, yield after HPLC is 12%.
Turning to `Cc1cccc(C)c1-c1cc2nc(n1)NS(=O)(=O)c1cccc(c1)C(=O)N(Cc1ccc(F)nc1)[C@H](CC(C)(C)C)CO2`, in data set [1] (from Cc1cccc(C)c1-c1cc(OC[C@@H](CC(C)(C)C)NCc2ccc(F)nc2)nc(NS(=O)(=O)c2cccc(C(=O)O)c2)n1, CDMT/NMM, DMF, 25.0 °C, 5.0 h, 2 steps), the ring closure, yield after HPLC came to 34%.
In data set [1] (from Cc1cccc(C)c1-c1cc(OC[C@@H](CC(C)(C)C)NCc2ccc(I)cc2)nc(NS(=O)(=O)c2cccc(C(=O)O)c2)n1, HATU/DIEA, DMF, 26.1 mM, 15.0 h), `Cc1cccc(C)c1-c1cc2nc(n1)NS(=O)(=O)c1cccc(c1)C(=O)N(Cc1ccc(I)cc1)[C@H](CC(C)(C)C)CO2` gave a ring closure, yield after HPLC of 32%.
Turning to `Cc1cccc(C)c1-c1cc2nc(n1)NS(=O)(=O)c1cccc(c1)C(=O)N(Cc1cccc(F)n1)[C@H](CC(C)(C)C)CO2`, the ring closure, yield after HPLC in data set [1] (from 3-[[4-(2,6-dimethylphenyl)-6-[(2R)-2-[(6-fluoro-2-pyridyl)methylamino]-4,4-dimethyl-pentoxy]pyrimidin-2-yl]sulfamoyl]benzoic acid (Dihydrochloride salt), CDMT/NMM, DMF, 25.2 mM) stood at 66%.
On to `Cc1cccc(C)c1-c1cc2nc(n1)NS(=O)(=O)c1cccc(c1)C(=O)N(Cc1ccccn1)[C@H](CC(C)(C)C)CO2`, for which, in data set [1] (from Cc1cccc(C)c1-c1cc(OC[C@@H](CC(C)(C)C)NCc2ccccn2)nc(NS(=O)(=O)c2cccc(C(=O)O)c2)n1, HATU/TEA, DMF, 20.2 mM, 16.0 h), the ring closure, yield after HPLC amounted to 41%.
With `Cc1cccc(C)c1-c1cc2nc(n1)NS(=O)(=O)c1cccc(c1)C(=O)N(Cc1cncc(N(C)C3CCC3)n1)[C@@H]1CN(C(=O)OC(C)(C)C)C[C@H]1O2`, in data set [1] (from Cc1cccc(C)c1-c1cc(O[C@@H]2CN(C(=O)OC(C)(C)C)C[C@H]2NCc2cncc(N(C)C3CCC3)n2)nc(NS(=O)(=O)c2cccc(C(=O)O)c2)n1, CDMT/NMM, DMF, 24.3 mM, 15.1 h), the ring closure, yield after HPLC was 48%.
As for `Cc1cccc(C)c1-c1cc2nc(n1)NS(=O)(=O)c1cccc(c1)C(=O)N(Cc1cncc(N3CCC[C@H]3C)n1)C(C1CC(C)(C)C1)CO2` (stereo partly shown), the ring closure, yield after HPLC in data set [1] (from Cc1cccc(C)c1-c1cc(OCC(NCc2cncc(N3CCC[C@H]3C)n2)C2CC(C)(C)C2)nc(NS(=O)(=O)c2cccc(C(=O)O)c2)n1, CDMT/NMM, DMF, 12.7 mM, 16.5 h) is 18% and 17%.
Regarding `Cc1cccc(C)c1-c1cc2nc(n1)NS(=O)(=O)c1cccc(c1)C(=O)N(Cc1ccc(N3CCC(C)CC3)nc1)[C@H](CC(C)C)CO2` [Compound 975], the “Ent. B Max Activity” value on CFTR [2] (chloride transport as % of triple combination control (Enteroid Assay B)) is given as “+++ (+++ is >60%)”. For the same compound, the pEC50 at CFTR [2] (human enteroid cells, 18-24 hours, acute 10 μM forskolin and 300 nM ivacaftor, read-out: Ent. B EC50) is greater than 6.00. For the same compound, on F508del (Table 6), the Emax was greater than 60% and the pEC50 was greater than 6.00. Also, on CFTR [3] (Table 6), the “Ent. A Max Activity” value was “+++ (+++ is >60%)” and the negative logarithm of the EC50 (pEC50) is greater than 6.00.
Consider `Cc1cccc(C)c1-c1cc2nc(n1)NS(=O)(=O)c1cccc(c1)CN(Cc1cnn(-c3ccccc3)c1C)[C@H](CC(C)C)CO2` [Compound 1026], for which, on F508del (Table 7), the Emax was greater than 60% and the pEC50 was greater than 6.00. Further, at CFTR [3] (Table 7), the “Ent. A Max Activity” value is reported as “+++ (+++ is >60%)” and the pEC50 is greater than 6.00.
Take `Cc1cccc(C)c1-c1cc2nc(n1)NS(=O)(=O)c1cccc(c1)CN(Cc1cccc3c1OC(F)(F)O3)[C@H](CC(C)C)CO2` [Compound 1029]: on F508del (Table 7), the Emax was greater than 60% and the pEC50 was greater than 6.00. Further, at CFTR [3] (Table 7), the “Ent. A Max Activity” value is listed as “++ (++ is 30-60%)” and the pEC50 was greater than 6.00.
For the compound `Cc1cccc(C)c1-c1cc2nc(n1)NS(=O)(=O)c1cccc(c1)CN(CCC(C)(C)C)[C@H](CC(C)C)CO2` [Compound 1043], on F508del (Table 6), the Emax was greater than 60% and the pEC50 is greater than 6.00. Further, at CFTR [3] (Table 6), the “Ent. A Max Activity” value is “+++ (+++ is >60%)” and the pEC50 was greater than 6.00.
Turning to `CC(=O)N1CCC(CCN2C(=O)c3cccc(c3)S(=O)(=O)Nc3nc(cc(-c4c(C)cccc4C)n3)OC[C@H]2CC(C)C)CC1` [Compound 1107], at F508del (Table 7), the Emax is greater than 60% and the pEC50 is greater than 6.00. Also, on CFTR [3] (Table 7), the “Ent. A Max Activity” value is “+++ (+++ is >60%)” and the pEC50 was greater than 6.00.
Take `Cc1cccc(C)c1-c1cc2nc(n1)NS(=O)(=O)c1cccc(c1)C(=O)N(C)[C@H](CC1CCCCC1)O2` [Compound 1193]: on F508del (Table 6), the Emax is greater than 60% and the pEC50 was greater than 6.00. In addition, on CFTR [3] (Table 6), the “Ent. A Max Activity” value is “+++ (+++ is >60%)” and the pEC50 is greater than 6.00.

The values above are taken from patent publication US20240150377A1, “MODULATORS OF CYSTIC FIBROSIS TRANSMEMBRANE CONDUCTANCE REGULATOR” (VERTEX PHARMACEUTICALS INCORPORATED, priority 2020, published 2024).
